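Tested at 5 concentrations; 48 h exposure; 96-well plates; endpoints linearly interpolated, else capped at highest concentration. At the GI50, growth is halved. The concentration for full growth arrest is given as TGI.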
Key:
Test in all cases: inhibition of tumour cell growth, NCI panel, 48 h
MOLT-4 leukemia = system: MOLT-4 leukemia
KM12 colon = system: KM12 colon
XF 498 CNS = system: XF 498 CNS
ACHN renal = system: ACHN renal
SN12C renal = system: SN12C renal
MALME-3M melanoma = system: MALME-3M melanoma
RPMI-8226 leukemia = system: RPMI-8226 leukemia
SF-539 CNS = system: SF-539 CNS
UACC-257 melanoma = system: UACC-257 melanoma
HOP-92 NSCLC = system: HOP-92 NSCLC
SNB-19 CNS = system: SNB-19 CNS
TK-10 renal = system: TK-10 renal
M19-MEL melanoma = system: M19-MEL melanoma
HCT-116 colon = system: HCT-116 colon
DMS 114 small cell lung = system: DMS 114 small cell lung
SF-268 CNS = system: SF-268 CNS
RXF 393 renal = system: RXF 393 renal
786-0 renal = system: 786-0 renal
SNB-75 CNS = system: SNB-75 CNS
SK-MEL-28 melanoma = system: SK-MEL-28 melanoma
OVCAR-8 ovarian = system: OVCAR-8 ovarian
IGROV1 ovarian = system: IGROV1 ovarian
LXFL 529 NSCLC = system: LXFL 529 NSCLC
LOX IMVI melanoma = system: LOX IMVI melanoma
OVCAR-4 ovarian = system: OVCAR-4 ovarian
UO-31 renal = system: UO-31 renal
A549 NSCLC = system: A549 NSCLC
NCI-H460 lung = system: NCI-H460 lung
SNB-78 CNS = system: SNB-78 CNS
U251 CNS = system: U251 CNS
CAKI-1 renal = system: CAKI-1 renal
CCRF-CEM leukemia = system: CCRF-CEM leukemia
K-562 leukemia = system: K-562 leukemia
NCI-H23 lung = system: NCI-H23 lung
NCI-H226 lung = system: NCI-H226 lung
SF-295 CNS = system: SF-295 CNS
OVCAR-3 ovarian = system: OVCAR-3 ovarian
UACC-62 melanoma = system: UACC-62 melanoma
HOP-18 NSCLC = system: HOP-18 NSCLC
DLD-1 colon = system: DLD-1 colon
HT29 colon = system: HT29 colon
M14 melanoma = system: M14 melanoma
DMS 273 small cell lung = system: DMS 273 small cell lung
A498 renal = system: A498 renal
HCT-15 colon = system: HCT-15 colon
SW-620 colon = system: SW-620 colon
HOP-62 NSCLC = system: HOP-62 NSCLC
SK-OV-3 ovarian = system: SK-OV-3 ovarian
SK-MEL-2 melanoma = system: SK-MEL-2 melanoma
SK-MEL-5 melanoma = system: SK-MEL-5 melanoma
NCI-H522 lung = system: NCI-H522 lung
OVCAR-5 ovarian = system: OVCAR-5 ovarian
KM20L2 colon = system: KM20L2 colon
SR leukemia = system: SR leukemia
EKVX NSCLC = system: EKVX NSCLC
COLO 205 colon = system: COLO 205 colon
HCC-2998 colon = system: HCC-2998 colon

## COc1cc2c(cc1OC)[Se]c1cc(OC)c(OC)cc1[Se]2
MOLT-4 leukemia
  TGI: > 100 µM
KM12 colon
  GI50: 3.54 µM
  TGI: > 100 µM
XF 498 CNS
  GI50: > 100 µM
  TGI: > 100 µM
ACHN renal
  GI50: > 100 µM
  TGI: > 100 µM
SN12C renal
  GI50: > 100 µM
  TGI: > 100 µM
MALME-3M melanoma
  GI50: > 100 µM
  TGI: > 100 µM
RPMI-8226 leukemia
  GI50: > 100 µM
  TGI: > 100 µM
SF-539 CNS
  TGI: > 100 µM
UACC-257 melanoma
  GI50: > 100 µM
  TGI: > 100 µM
HOP-92 NSCLC
  TGI: > 100 µM
SNB-19 CNS
  GI50: > 100 µM
  TGI: > 100 µM
TK-10 renal
  GI50: > 100 µM
  TGI: > 100 µM
M19-MEL melanoma
  GI50: > 100 µM
  TGI: > 100 µM
HCT-116 colon
  GI50: > 100 µM
  TGI: > 100 µM
DMS 114 small cell lung
  GI50: 4.77 µM
  TGI: > 100 µM
SF-268 CNS
  GI50: > 100 µM
  TGI: > 100 µM
RXF 393 renal
  TGI: > 100 µM
786-0 renal
  GI50: > 100 µM
  TGI: > 100 µM
SNB-75 CNS
  TGI: > 100 µM
SK-MEL-28 melanoma
  GI50: > 100 µM
  TGI: > 100 µM
OVCAR-8 ovarian
  GI50: > 100 µM
  TGI: > 100 µM
IGROV1 ovarian
  GI50: > 100 µM
  TGI: > 100 µM
LXFL 529 NSCLC
  GI50: > 100 µM
  TGI: > 100 µM
LOX IMVI melanoma
  TGI: > 100 µM
OVCAR-4 ovarian
  GI50: > 100 µM
  TGI: > 100 µM
UO-31 renal
  GI50: > 100 µM
  TGI: > 100 µM
A549 NSCLC
  GI50: > 100 µM
  TGI: > 100 µM
NCI-H460 lung
  GI50: > 100 µM
  TGI: > 100 µM
SNB-78 CNS
  GI50: > 100 µM
  TGI: > 100 µM
U251 CNS
  GI50: > 100 µM
  TGI: > 100 µM
CAKI-1 renal
  GI50: > 100 µM
  TGI: > 100 µM
CCRF-CEM leukemia
  GI50: > 100 µM
  TGI: > 100 µM
K-562 leukemia
  GI50: 5.08 µM
  TGI: > 100 µM
NCI-H23 lung
  GI50: > 100 µM
  TGI: > 100 µM
NCI-H226 lung
  GI50: > 100 µM
  TGI: > 100 µM
SF-295 CNS
  TGI: > 100 µM
OVCAR-3 ovarian
  GI50: > 100 µM
  TGI: > 100 µM
UACC-62 melanoma
  GI50: > 100 µM
  TGI: > 100 µM
HOP-18 NSCLC
  TGI: > 100 µM
DLD-1 colon
  GI50: > 100 µM
  TGI: > 100 µM
HT29 colon
  GI50: 4.32 µM
  TGI: > 100 µM
M14 melanoma
  GI50: > 100 µM
  TGI: > 100 µM
DMS 273 small cell lung
  TGI: > 100 µM
A498 renal
  GI50: > 100 µM
  TGI: > 100 µM
HCT-15 colon
  TGI: > 100 µM
SW-620 colon
  GI50: > 100 µM
  TGI: > 100 µM
HOP-62 NSCLC
  GI50: > 100 µM
  TGI: > 100 µM
SK-OV-3 ovarian
  GI50: > 100 µM
  TGI: > 100 µM
SK-MEL-2 melanoma
  GI50: > 100 µM
  TGI: > 100 µM
SK-MEL-5 melanoma
  GI50: > 100 µM
  TGI: > 100 µM
NCI-H522 lung
  GI50: > 100 µM
  TGI: > 100 µM

## O=C(c1ccccc1)c1nc2ccc(Cl)cc2c2c1Cc1ccccc1-2
MOLT-4 leukemia
  TGI: > 100 µM
KM12 colon
  TGI: > 100 µM
XF 498 CNS
  TGI: > 100 µM
ACHN renal
  TGI: > 100 µM
SN12C renal
  TGI: > 100 µM
MALME-3M melanoma
  TGI: > 100 µM
OVCAR-5 ovarian
  TGI: > 100 µM
RPMI-8226 leukemia
  TGI: > 100 µM
SF-539 CNS
  TGI: > 100 µM
UACC-257 melanoma
  TGI: > 100 µM
SNB-19 CNS
  TGI: > 100 µM
TK-10 renal
  TGI: > 100 µM
M19-MEL melanoma
  TGI: > 100 µM
HCT-116 colon
  TGI: > 100 µM
DMS 114 small cell lung
  TGI: > 100 µM
SF-268 CNS
  TGI: > 100 µM
RXF 393 renal
  TGI: > 100 µM
786-0 renal
  TGI: > 100 µM
KM20L2 colon
  TGI: > 100 µM
SNB-75 CNS
  TGI: > 100 µM
SK-MEL-28 melanoma
  TGI: > 100 µM
OVCAR-8 ovarian
  TGI: > 100 µM
IGROV1 ovarian
  TGI: > 100 µM
LXFL 529 NSCLC
  TGI: > 100 µM
SR leukemia
  TGI: > 100 µM
LOX IMVI melanoma
  TGI: > 100 µM
OVCAR-4 ovarian
  TGI: > 100 µM
EKVX NSCLC
  TGI: > 100 µM
UO-31 renal
  TGI: > 100 µM
A549 NSCLC
  TGI: > 100 µM
U251 CNS
  TGI: > 100 µM
CAKI-1 renal
  TGI: > 100 µM
COLO 205 colon
  TGI: > 100 µM
K-562 leukemia
  TGI: > 100 µM
NCI-H23 lung
  TGI: > 100 µM
NCI-H226 lung
  TGI: > 100 µM
SF-295 CNS
  TGI: > 100 µM
HCC-2998 colon
  TGI: > 100 µM
OVCAR-3 ovarian
  TGI: > 100 µM
UACC-62 melanoma
  TGI: > 100 µM
HOP-18 NSCLC
  TGI: > 100 µM
DLD-1 colon
  TGI: > 100 µM
M14 melanoma
  TGI: > 100 µM
DMS 273 small cell lung
  TGI: > 100 µM
HCT-15 colon
  TGI: > 100 µM
SW-620 colon
  TGI: > 100 µM
HOP-62 NSCLC
  TGI: > 100 µM
SK-MEL-2 melanoma
  TGI: > 100 µM
SK-MEL-5 melanoma
  TGI: > 100 µM
NCI-H522 lung
  TGI: > 100 µM
